Calls of active or inactive are those of the source. No rule for the calls is given here.
Test system: CCRIS mutagenicity, Ames/micronucleus/aberration tests
Assay: CCRIS mutagenicity studies
[1] = Test System: AMES SALMONELLA TYPHIMURIUM, Strain/Indicator: TA97, Metabolic Activation: NONE, Method: STANDARD PLATE
[2] = Test System: AMES SALMONELLA TYPHIMURIUM, Strain/Indicator: TA98, Metabolic Activation: HAMSTER, LIVER, S-9, AROCLOR 1254 (10%), Method: PREINCUBATION
[3] = Test System: AMES SALMONELLA TYPHIMURIUM, Strain/Indicator: TA98, Metabolic Activation: NONE, Method: PREINCUBATION
[4] = Test System: AMES SALMONELLA TYPHIMURIUM, Strain/Indicator: TA98, Metabolic Activation: NONE, Method: STANDARD PLATE
[5] = Test System: AMES SALMONELLA TYPHIMURIUM, Strain/Indicator: TA98, Metabolic Activation: RAT, LIVER, S-9, AROCLOR 1254 (10%), Method: PREINCUBATION
[6] = Test System: AMES SALMONELLA TYPHIMURIUM, Strain/Indicator: TA98, Metabolic Activation: RAT, LIVER, S-9, AROCLOR 1254, Method: STANDARD PLATE
[7] = Test System: AMES SALMONELLA TYPHIMURIUM, Strain/Indicator: TA100, Metabolic Activation: HAMSTER, LIVER, S-9, AROCLOR 1254 (10%), Method: PREINCUBATION
[8] = Test System: AMES SALMONELLA TYPHIMURIUM, Strain/Indicator: TA100, Metabolic Activation: NONE, Method: PREINCUBATION
[9] = Test System: AMES SALMONELLA TYPHIMURIUM, Strain/Indicator: TA100, Metabolic Activation: NONE, Method: STANDARD PLATE
[10] = Test System: AMES SALMONELLA TYPHIMURIUM, Strain/Indicator: TA100, Metabolic Activation: RAT, LIVER, S-9, AROCLOR 1254 (10%), Method: PREINCUBATION
[11] = Test System: AMES SALMONELLA TYPHIMURIUM, Strain/Indicator: TA100, Metabolic Activation: RAT, LIVER, S-9, AROCLOR 1254, Method: STANDARD PLATE
[12] = Test System: AMES SALMONELLA TYPHIMURIUM, Strain/Indicator: TA102, Metabolic Activation: NONE, Method: STANDARD PLATE
[13] = Test System: AMES SALMONELLA TYPHIMURIUM, Strain/Indicator: TA102, Metabolic Activation: RAT, LIVER, S-9, AROCLOR 1254, Method: STANDARD PLATE
[14] = Test System: AMES SALMONELLA TYPHIMURIUM, Strain/Indicator: TA1535, Metabolic Activation: HAMSTER, LIVER, S-9, AROCLOR 1254 (10%), Method: PREINCUBATION
[15] = Test System: AMES SALMONELLA TYPHIMURIUM, Strain/Indicator: TA1535, Metabolic Activation: NONE, Method: PREINCUBATION
[16] = Test System: AMES SALMONELLA TYPHIMURIUM, Strain/Indicator: TA1535, Metabolic Activation: RAT, LIVER, S-9, AROCLOR 1254 (10%), Method: PREINCUBATION
[17] = Test System: AMES SALMONELLA TYPHIMURIUM, Strain/Indicator: TA1537, Metabolic Activation: HAMSTER, LIVER, S-9, AROCLOR 1254 (10%), Method: PREINCUBATION
[18] = Test System: AMES SALMONELLA TYPHIMURIUM, Strain/Indicator: TA1537, Metabolic Activation: NONE, Method: PREINCUBATION
[19] = Test System: AMES SALMONELLA TYPHIMURIUM, Strain/Indicator: TA1537, Metabolic Activation: RAT, LIVER, S-9, AROCLOR 1254 (10%), Method: PREINCUBATION
[20] = Test System: AMES SALMONELLA TYPHIMURIUM, Strain/Indicator: TA98, Metabolic Activation: RAT, LIVER, S-9, PHENOBARBITAL, Method: STANDARD PLATE
[21] = Test System: AMES SALMONELLA TYPHIMURIUM, Strain/Indicator: TA100, Metabolic Activation: RAT, LIVER, S-9, PHENOBARBITAL, Method: STANDARD PLATE
[22] = Test System: AMES SALMONELLA TYPHIMURIUM, Strain/Indicator: TA1537, Metabolic Activation: NONE, Method: STANDARD PLATE
[23] = Test System: AMES SALMONELLA TYPHIMURIUM, Strain/Indicator: TA1538, Metabolic Activation: NONE, Method: STANDARD PLATE
[24] = Test System: AMES SALMONELLA TYPHIMURIUM, Strain/Indicator: TA1535, Metabolic Activation: NONE, Method: STANDARD PLATE

Structure (SMILES): ClC1=C(Cl)[C@]2(Cl)[C@@H]3[C@H]4C[C@H]([C@@H]5O[C@H]45)[C@@H]3[C@@]1(Cl)C2(Cl)Cl
- mutagenic call [1]: inactive; negative
- mutagenic call (Test System: AMES SALMONELLA TYPHIMURIUM, Strain/Indicator: TA97, Metabolic Activation: RAT, LIVER, S-9, AROCLOR 1254, Method: STANDARD PLATE): inactive; negative
- mutagenic call [2]: inactive; negative
- mutagenic call [3]: inactive; negative
- mutagenic call [4]: inactive; negative
- mutagenic call [5]: inactive; negative
- mutagenic call [6]: inactive; negative
- mutagenic call [7]: inactive; negative
- mutagenic call [8]: inactive; negative
- mutagenic call [9]: inactive; negative
- mutagenic call [10]: inactive; negative
- mutagenic call [11]: inactive; negative
- mutagenic call [12]: inactive; negative
- mutagenic call [13]: inactive; negative
- mutagenic call [14]: inactive; negative
- mutagenic call [15]: inactive; negative
- mutagenic call [16]: inactive; negative
- mutagenic call [17]: inactive; negative
- mutagenic call [18]: inactive; negative
- mutagenic call [19]: inactive; negative
- mutagenic call (Test System: MOUSE LYMPHOMA, Strain/Indicator: L5178Y (TK+/TK-), Metabolic Activation: NONE, Method: SUSPENSION/PLATE): inactive; negative
- mutagenic call (Test System: MOUSE LYMPHOMA, Strain/Indicator: L5178Y (TK+/TK-), Metabolic Activation: RAT, LIVER, S-9, AROCLOR 1254, Method: SUSPENSION/PLATE): inactive; negative

Structure (SMILES): Cc1c2ccncc2c(C)c2c1[nH]c1ccc(N)cc12
- mutagenic call [4]: active; positive
- mutagenic call [20]: active; positive
- mutagenic call [9]: inactive; negative
- mutagenic call [21]: inactive; negative
- mutagenic call [22]: active; positive
- mutagenic call (Test System: AMES SALMONELLA TYPHIMURIUM, Strain/Indicator: TA1537, Metabolic Activation: RAT, LIVER, S-9, PHENOBARBITAL, Method: STANDARD PLATE): active; positive
- mutagenic call [23]: active; positive
- mutagenic call (Test System: AMES SALMONELLA TYPHIMURIUM, Strain/Indicator: TA1538, Metabolic Activation: RAT, LIVER, S-9, PHENOBARBITAL, Method: STANDARD PLATE): active; positive

Structure (SMILES): CC(=O)[C@@]1(C)O[C@]12C(=O)C=Cc1ccccc12
- mutagenic call [8]: inactive; negative

Structure (SMILES): O=C(O)/C(Cl)=C(\C(=O)O)C(Cl)Cl
- mutagenic call [1]: inactive; negative
- mutagenic call (Test System: AMES SALMONELLA TYPHIMURIUM, Strain/Indicator: TA97, Metabolic Activation: RAT, LIVER, S-9, PHENOBARBITAL, Method: STANDARD PLATE): inactive; negative
- mutagenic call [4]: inactive; negative
- mutagenic call [6]: inactive; negative
- mutagenic call [20]: inactive; negative
- mutagenic call [11]: inactive; negative
- mutagenic call [21]: inactive; negative
- mutagenic call [12]: inactive; negative
- mutagenic call [13]: inactive; negative

Structure (SMILES): COc1cc2c(c(OC)c1CO)C(=O)c1ccccc1C2=O
- mutagenic call [3]: inactive; negative
- mutagenic call (Test System: AMES SALMONELLA TYPHIMURIUM, Strain/Indicator: TA98, Metabolic Activation: RAT, LIVER, S-9, PCB, Method: PREINCUBATION): inactive; negative
- mutagenic call [8]: inactive; negative
- mutagenic call (Test System: AMES SALMONELLA TYPHIMURIUM, Strain/Indicator: TA100, Metabolic Activation: RAT, LIVER, S-9, PCB, Method: PREINCUBATION): inactive; negative

Structure (SMILES): CNC[C@H](O)c1ccc(O)c(O)c1
- mutagenic call [2]: inactive; negative
- mutagenic call [3]: inactive; negative
- mutagenic call [5]: inactive; negative
- mutagenic call [7]: inactive; negative
- mutagenic call [8]: inactive; negative
- mutagenic call [10]: inactive; negative
- mutagenic call [14]: inactive; negative
- mutagenic call [15]: inactive; negative
- mutagenic call [16]: inactive; negative
- mutagenic call [17]: inactive; negative
- mutagenic call [18]: inactive; negative
- mutagenic call [19]: inactive; negative

Structure (SMILES): O=C(O)CCCC[C@@H]1SC[C@@H]2NC(=O)N[C@@H]21
- mutagenic call [4]: inactive; negative
- mutagenic call [6]: inactive; negative
- mutagenic call [9]: inactive; negative
- mutagenic call [11]: inactive; negative
- mutagenic call [24]: inactive; negative
- mutagenic call (Test System: AMES SALMONELLA TYPHIMURIUM, Strain/Indicator: TA1535, Metabolic Activation: RAT, LIVER, S-9, AROCLOR 1254, Method: STANDARD PLATE): inactive; negative
- mutagenic call [22]: inactive; negative
- mutagenic call (Test System: AMES SALMONELLA TYPHIMURIUM, Strain/Indicator: TA1537, Metabolic Activation: RAT, LIVER, S-9, AROCLOR 1254, Method: STANDARD PLATE): inactive; negative
- mutagenic call [23]: inactive; negative
- mutagenic call (Test System: AMES SALMONELLA TYPHIMURIUM, Strain/Indicator: TA1538, Metabolic Activation: RAT, LIVER, S-9, AROCLOR 1254, Method: STANDARD PLATE): inactive; negative
- mutagenic call (Test System: E. COLI, Strain/Indicator: WP2, Metabolic Activation: NONE, Method: STANDARD PLATE): inactive; negative
- mutagenic call (Test System: E. COLI, Strain/Indicator: WP2, Metabolic Activation: RAT, LIVER, S-9, AROCLOR 1254, Method: STANDARD PLATE): inactive; negative

Structure (SMILES): O[C@@H]1[C@H]2O[C@H]2c2c(ccc3cc4c(ccc5ccccc54)nc23)[C@H]1O
- mutagenic call [3]: active; positive
- mutagenic call [8]: active; positive
- mutagenic call (Test System: CHINESE HAMSTER V-79, Strain/Indicator: V-79/8-AZAGUANINE, Metabolic Activation: NONE): active; positive

Structure (SMILES): CC1(C)C2CCC3(CO3)C1C2 (configuration not stated)
- mutagenic call [9]: inactive; negative
- mutagenic call [24]: inactive; negative

Structure (SMILES): CCc1ccc([N+](=O)[O-])cc1
- mutagenic call [3]: inactive; negative
- mutagenic call (Test System: AMES SALMONELLA TYPHIMURIUM, Strain/Indicator: TA98, Metabolic Activation: RAT, LIVER, S-9, KANECHLOR 500, Method: PREINCUBATION): inactive; negative
- mutagenic call [8]: inactive; negative
- mutagenic call (Test System: AMES SALMONELLA TYPHIMURIUM, Strain/Indicator: TA100, Metabolic Activation: RAT, LIVER, S-9, KANECHLOR 500, Method: PREINCUBATION): inactive; negative

Reference: PubChem BioAssay AID1259407 (Chemical Carcinogenesis Research Information System (CCRIS), 2018)
